Laboratory results taken from US10316017B2, “COT modulators and methods of use thereof” (Gilead Sciences, Inc., priority 2015, dated 2019).

Tests used:
[1] = tested on: TNFα production in LPS-stimulated human monocytes; experiment: Cot Monocyte TNFα Cell Based Assay; conditions: Homo sapiens, Monocyte, TNFα in LPS-stimulated human monocytes; read-out: EC50 TNF
Outline: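 Percent-of-control values derive from TR-FRET ratios of TNFα in spun-down media, referenced to unstimulated and LPS-stimulated wells. Exposure: 1 h compound preincubation, then 50 pg/ml LPS for 4 h, both at 37 °C, with 0.5% final DMSO.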

[2] = target: T1, human Cot catalytic domain (30-397 amino acids) (Homo sapiens, UniProt P41279); experiment: High Throughput Cot Biochemical Assay (KinEASE TR-FRET); conditions: Cot KinEASE TR-FRET (HTRF) biochemical assay, 400 μM ATP; read-out: IC50 HTRF
T1 construct: Purified recombinant human Cot catalytic domain (30-397 amino acids) was purchased from Cama Biosciences; purchased Cama Biosciences (so in the source)
Outline: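 Phosphorylation of 1 μM XL665-STK3 peptide by 5 nM Cot catalytic domain was measured by time-resolved FRET using a europium […] antibody. ATP was 400 μM; buffer was 10 mM MOPS pH 7.0 with Mg2+ and DTT.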

T1 sequence (P41279 30-397): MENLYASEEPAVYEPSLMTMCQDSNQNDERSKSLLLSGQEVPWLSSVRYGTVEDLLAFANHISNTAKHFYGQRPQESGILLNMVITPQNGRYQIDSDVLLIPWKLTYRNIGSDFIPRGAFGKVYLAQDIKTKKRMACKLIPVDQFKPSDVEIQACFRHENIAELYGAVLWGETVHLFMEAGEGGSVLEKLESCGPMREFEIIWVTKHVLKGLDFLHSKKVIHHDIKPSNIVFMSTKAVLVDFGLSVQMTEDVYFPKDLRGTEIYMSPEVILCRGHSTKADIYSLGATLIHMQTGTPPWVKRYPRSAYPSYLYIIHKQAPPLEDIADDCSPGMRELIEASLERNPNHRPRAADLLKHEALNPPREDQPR

| SMILES | EC50 [1] | IC50 [2] |
| --- | --- | --- |
| [2H][C@](Nc1cc(Cl)c2ncc(C#N)c(NC(CC)c3cnc(F)c(F)c3)c2c1)(c1ccc(F)cc1)c1cn(C2CC2)nn1 (stereo partly drawn) [Example 180, 8-chloro-6-(((S)-(1-cyclopropyl-1H-1,2,3-triazol-4-yl)(4-fluorophenyl)methyl-d)amino)-4-((1-(5,6-difluoropyridin-3-yl)propyl)amino) quinoline-3-carbonitrile] | 3590 nM | 194 nM |
| [2H][C@](Nc1cc(Cl)c2ncc(C#N)c(N[C@H](COC)c3ccccc3)c2c1)(c1ccc(F)cc1)c1cn(C2CC2)nn1 [Example 181, 8-chloro-6-(((1-cyclopropyl-1H-1,2,3-triazol-4-yl)(4-fluorophenyl)methyl-d)amino)-4-(((S)-2-methoxy-1-phenylethyl)amino) quinoline-3-carbonitrile] | 348 nM | 28 nM |
| [2H][C@@](Nc1cc(C#N)c2ncc(C#N)c(Nc3ccc(F)c(Cl)c3)c2c1)(c1cn(C2CC2)nn1)c1ccccc1Cl [Example 182, (S)-4-((3-chloro-4-fluorophenyl)amino)-6-(((2-chlorophenyl)(1-cyclopropyl-1H-1,2,3-triazol-4-yl)methyl-d)amino) quinoline-3,8-dicarbonitrile] | 136 nM | 4 nM |
| [2H][C@@](Nc1cc(Cl)c2ncc(C#N)c(Nc3ccc(Cl)c(Cl)c3F)c2c1)(c1cn(C2CC2)nn1)c1ccccc1Cl [Example 183, (S)-8-chloro-6-(((2-chlorophenyl)(1-cyclopropyl-1H-1,2,3-triazol-4-yl)methyl-d)amino)-4-((3,4-dichloro-2-fluorophenyl)amino)quinoline-3-carbonitrile] | 1410 nM | 89 nM |
| [2H]C(Nc1cc(Cl)c2ncc(C#N)c(NCC(C)(C)C)c2c1)(c1ccc(F)cc1)c1nnnn1C (stereo not drawn) [Example 184, 8-chloro-6-(((4-fluorophenyl)(1-methyl-1H-tetrazol-5-yl)methyl-d)amino)-4-(neopentylamino) quinoline-3-carbonitrile] | 4380 nM | 154 nM |
| [2H][C@](Nc1cc(Cl)c2ncc(C#N)c(N[C@@H](c3ccccc3)C3CC3)c2c1)(c1ccc(F)cc1)c1cn(C2CC2)nn1 [Example 185, 8-chloro-4-(((R)-cyclopropyl (phenyl)methyl)amino)-6-(((S)-(1-cyclopropyl-1H-1,2,3-triazol-4-yl)(4-fluorophenyl)methyl-d)amino)quinoline-3-carbonitrile] | 199 nM | 11 nM |
| [2H][C@](Nc1cc(Cl)c2ncc(C#N)c(N[C@@H](CO)C(C)(C)C)c2c1)(c1ccc(F)cc1)c1cn(C2CC2)nn1 [Example 186, 8-chloro-6-(((S)-(1-cyclopropyl-1H-1,2,3-triazol-4-yl)(4-fluorophenyl)methyl-d)amino)-4-(((R)-1-hydroxy-3,3-dimethylbutan-2-yl)amino)quinoline-3-carbonitrile] | > 10000 nM | > 10000 nM |
| [2H][C@](Nc1cc(Cl)c2ncc(C#N)c(N[C@H](CO)C(C)(C)C)c2c1)(c1ccc(F)cc1)c1cn(C2CC2)nn1 [Example 187, 8-chloro-6-(((S)-(1-cyclopropyl-1H-1,2,3-triazol-4-yl)(4-fluorophenyl)methyl-d)amino)-4-(((S)-1-hydroxy-3,3-dimethylbutan-2-yl)amino)quinoline-3-carbonitrile] | 793 nM | 85 nM |
| [2H][C@](Nc1cc(Cl)c2ncc(C#N)c(N[C@H](C)C(C)(C)C)c2c1)(c1ccc(F)cc1)c1cn(C2CC2)nn1 [Example 188, 8-chloro-6-(((S)-(1-cyclopropyl-1H-1,2,3-triazol-4-yl)(4-fluorophenyl)methyl-d)amino)-4-(((R)-3,3-dimethylbutan-2-yl)amino)quinoline-3-carbonitrile] | 203 nM | 16 nM |
| [2H][C@](Nc1cc(Cl)c2ncc(C#N)c(NC3CCCC3(C)C)c2c1)(c1ccc(F)cc1)c1cn(C2CC2)nn1 (stereo partly drawn) [Example 189] | 157 nM | 10 nM |
| [2H][C@](Nc1cc(Cl)c2ncc(C#N)c(NC3CCOCC3(C)C)c2c1)(c1ccc(F)cc1)c1cn(C2CC2)nn1 (stereo partly drawn) [Example 190, 8-chloro-6-(((S)-(1-cyclopropyl-1H-1,2,3-triazol-4-yl)(4-fluorophenyl)methyl-d)amino)-4-((3,3-dimethyltetrahydro-2H-pyran-4-yl)amino)quinoline-3-carbonitrile] | 55 nM | 3 nM |
| [2H][C@](Nc1cc(Cl)c2ncc(C#N)c(NCC(Cl)(Cl)Cl)c2c1)(c1ccc(F)cc1)c1cn(C2CC2)nn1 [Example 191, (S)-8-chloro-6-(((1-cyclopropyl-1H-1,2,3-triazol-4-yl)(4-fluorophenyl)methyl-d)amino)-4-((2,2,2-trichloroethyl)amino) quinoline-3-carbonitrile] | 487 nM | 56 nM |
| [2H][C@](Nc1cc(Cl)c2ncc(C#N)c(NCC(C)(C)CCl)c2c1)(c1ccc(F)cc1)c1cn(C2CC2)nn1 [Example 192, (S)-8-chloro-4-((3-chloro-2,2-dimethylpropyl)amino)-6-(((1-cyclopropyl-1H-1,2,3-triazol-4-yl)(4-fluorophenyl)methyl-d)amino)quinoline-3-carbonitrile] | 107 nM | 3 nM |
| [2H]C(Nc1cc(Cl)c2ncc(C#N)c(NC(CS(C)(=O)=O)c3ccccc3)c2c1)(c1ccc(F)cc1)c1cn(C2CC2)nn1 (stereo not drawn) [Example 193, 8-chloro-6-(((1-cyclopropyl-1H-1,2,3-triazol-4-yl)(4-fluorophenyl)methyl-d)amino)-4-((2-(methylsulfonyl)-1-phenylethyl)amino) quinoline-3-carbonitrile] | 833 nM | 57 nM |
| [2H][C@](Nc1cc(C)c2ncc(C#N)c(NCC(C)(C)C)c2c1)(c1ccc(F)cc1)c1cn(C2CC2)nn1 [Example 194, (S)-6-(((1-cyclopropyl-1H-1,2,3-triazol-4-yl)(4-fluorophenyl)methyl-d)amino)-8-methyl-4-(neopentylamino) quinoline-3-carbonitrile] | 2420 nM | 286 nM |
| [2H][C@](Nc1cc(C(F)(F)F)c2ncc(C#N)c(N[C@H](CC)c3ccccc3)c2c1)(c1ccc(F)cc1)c1cn(C2CC2)nn1 [Example 195, 6-(((S)-(1-cyclopropyl-1H-1,2,3-triazol-4-yl)(4-fluorophenyl)methyl-d)amino)-4-(((R)-1-phenylpropyl)amino)-8-(trifluoromethyl) quinoline-3-carbonitrile] | 1190 nM | 160 nM |
| [2H][C@](Nc1cc(C(F)(F)F)c2ncc(C#N)c(NCC(C)(C)C)c2c1)(c1ccc(F)cc1)c1cn(C2CC2)nn1 [Example 196, (S)-6-(((1-cyclopropyl-1H-1,2,3-triazol-4-yl)(4-fluorophenyl)methyl-d)amino)-4-(neopentylamino)-8-(trifluoromethyl) quinoline-3-carbonitrile] | 1510 nM | 267 nM |
| [2H][C@@](Nc1cc(Cl)c2ncc(C#N)c(NCC(C)(C)C)c2c1)(c1cn(C2CC2)nn1)c1cccc(C#N)c1C [Example 197, (S)-8-chloro-6-(((3-cyano-2-methylphenyl) (1-cyclopropyl-1H-1,2,3-triazol-4-yl)methyl-d)amino)-4-(neopentylamino) quinoline-3-carbonitrile] | 38 nM | 2 nM |
| [2H][C@](Nc1cc(Cl)c2ncc(C#N)c(NCC3(C(F)F)CCC3)c2c1)(c1ccc(F)cc1)c1cn(C2CC2)nn1 [Example 198] | 229 nM | 12 nM |
| [2H][C@](Nc1cc(Cl)c2ncc(C#N)c(NCC3(C)CC(F)(F)C3)c2c1)(c1ccc(F)cc1)c1cn(C2CC2)nn1 [Example 199, (S)-8-chloro-6-(((1-cyclopropyl-1H-1,2,3-triazol-4-yl)(4-fluorophenyl)methyl-d)amino)-4-(((3,3-difluoro-1-methylcyclobutyl)methyl)amino) quinoline-3-carbonitrile] | 395 nM | 21 nM |
| [2H][C@](Nc1cc(Cl)c2ncc(C#N)c(NC3CS(=O)(=O)C3)c2c1)(c1ccc(F)cc1)c1cn(C2CC2)nn1 [Example 200, (S)-8-chloro-6-(((1-cyclopropyl-1H-1,2,3-triazol-4-yl)(4-fluorophenyl)methyl-d)amino)-4-((1,1-dioxidothietan-3-yl)amino)quinoline-3-carbonitrile] | 7580 nM | 244 nM |
| [2H][C@](Nc1cc(Cl)c2ncc(C#N)c(NC3COC3)c2c1)(c1ccc(F)cc1)c1cn(C2CC2)nn1 [Example 201, (S)-8-chloro-6-(((1-cyclopropyl-1H-1,2,3-triazol-4-yl)(4-fluorophenyl)methyl-d)amino)-4-(oxetan-3-ylamino) quinoline-3-carbonitrile] | 2540 nM | 251 nM |
| [2H][C@](Nc1cc(C#N)c2ncc(C#N)c(N[C@H](CC#N)c3ccccc3)c2c1)(c1ccc(F)cc1)c1cn(C2CC2)nn1 [Example 202, 4-(((R)-2-cyano-1-phenylethyl)amino)-6-(((S)-(1-cyclopropyl-1H-1,2,3-triazol-4-yl)(4-fluorophenyl)methyl-d)amino)quinoline-3,8-dicarbonitrile] | 44 nM | 2 nM |
| [2H][C@](Nc1cc(Cl)c2ncc(C#N)c(NCC3(C(F)F)CC3)c2c1)(c1ccc(F)cc1)c1cn(C2CC2)nn1 [Example 203, (S)-8-chloro-6-(((1-cyclopropyl-1H-1,2,3-triazol-4-yl)(4-fluorophenyl)methyl-d)amino)-4-(((1-(difluoromethyl)cyclopropyl)methyl)amino) quinoline-3-carbonitrile] | 608 nM | 38 nM |
